Measured values reported in PubChem BioAssay AID2060496 (Molecular Pharmacology Branch, DTP, NCI, 2025).

Test system: 276233-004-R-J1-PDC complex spheroid viability
Experiment: Anticancer human tumor 276233-004-R-J1-PDC patient-derived colon adenocarcinoma cell line growth inhibition [GQUAD]
Settings: for IC50: curve of first compound; for viability, T/C: stronger effect = lower value
Procedure, shortened: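 Multi-cell-type spheroids of tumor cells with HUVEC and mesenchymal stem cells, treated with drug combinations. Concentrations descend in half-log steps from near clinical Cmax, or from 10 microM where Cmax is unknown; viability read-out.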

[1] = second compound 0.0316 µM, first compound 0.0316 µM
[2] = second compound 0.0316 µM, first compound 0.1 µM
[3] = second compound 0.0316 µM, first compound 0.316 µM
[4] = second compound 0.0316 µM, first compound 1 µM
[5] = second compound 0.0316 µM, first compound 3.16 µM
[6] = second compound 0.0316 µM, first compound 10 µM
[7] = second compound 0.1 µM, first compound 0.0316 µM
[8] = second compound 0.1 µM, first compound 0.1 µM
[9] = second compound 0.1 µM, first compound 0.316 µM
[10] = second compound 0.1 µM, first compound 1 µM
[11] = second compound 0.1 µM, first compound 3.16 µM
[12] = second compound 0.1 µM, first compound 10 µM
[13] = second compound 0.316 µM, first compound 0.0316 µM
[14] = second compound 0.316 µM, first compound 0.1 µM
[15] = second compound 0.316 µM, first compound 0.316 µM
[16] = second compound 0.316 µM, first compound 1 µM
[17] = second compound 0.316 µM, first compound 3.16 µM
[18] = second compound 0.316 µM, first compound 10 µM
[19] = second compound 1 µM, first compound 0.0316 µM
[20] = second compound 1 µM, first compound 0.1 µM
[21] = second compound 1 µM, first compound 0.316 µM
[22] = second compound 1 µM, first compound 1 µM
[23] = second compound 1 µM, first compound 3.16 µM
[24] = second compound 1 µM, first compound 10 µM
[25] = second compound 3.16 µM, first compound 0.0316 µM
[26] = second compound 3.16 µM, first compound 0.1 µM
[27] = second compound 3.16 µM, first compound 0.316 µM
[28] = second compound 3.16 µM, first compound 1 µM
[29] = second compound 3.16 µM, first compound 3.16 µM
[30] = second compound 3.16 µM, first compound 10 µM
[31] = second compound 10 µM, first compound 0.0316 µM
[32] = second compound 10 µM, first compound 0.1 µM
[33] = second compound 10 µM, first compound 0.316 µM
[34] = second compound 10 µM, first compound 1 µM
[35] = second compound 10 µM, first compound 3.16 µM
[36] = second compound 10 µM, first compound 10 µM
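Also: spheroids exposed to drugs for seven days.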
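For viability, T/C in this document: 100% = DMSO vehicle control viability.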

Compound COc1ncnc(C2CC2)c1-c1ncc2cnn(Cc3ccc(-c4nc(C(F)(F)F)cn4C(C)C)cc3)c2n1 + Cc1[nH]c2ccc(F)cc2c1-c1nc2c3cccnc3c3ncccc3c2[nH]1 has an IC50 (second compound 0.0316 µM) of over 10 µM, an IC50 (second compound 0.1 µM) of over 10 µM and an IC50 (second compound 0.316 µM) of over 10 µM. It also gave an IC50 (second compound 1 µM) of 0.886 µM, an IC50 (second compound 3.16 µM) of under 0.0316 µM and an IC50 (second compound 10 µM) of under 0.0316 µM. For the same compound, the viability, T/C [1] was 87.2%, the viability, T/C [2] was 81.3% and the viability, T/C [3] was 79.2%. For the same compound, the viability, T/C [4] was 76.4%, the viability, T/C [5] was 80.4% and the viability, T/C [6] was 76.2%. The viability, T/C [7] was 75.5%, the viability, T/C [8] was 79.2% and the viability, T/C [9] was 63.5%. For the same compound, the viability, T/C [10] was 75.7%, the viability, T/C [11] was 66.6% and the viability, T/C [12] was 71%. It also gave a viability, T/C [13] of 70%, a viability, T/C [14] of 63.3% and a viability, T/C [15] of 83.6%. The viability, T/C [16] was 53.4%, the viability, T/C [17] was 73% and the viability, T/C [18] was 72%. For the same compound, the viability, T/C [19] was 58%, the viability, T/C [20] was 42.3% and the viability, T/C [21] was 57.8%. For the same compound, the viability, T/C [22] was 51.4%, the viability, T/C [23] was 48.3% and the viability, T/C [24] was 45.3%. For the same compound, the viability, T/C [25] was 18.7%, the viability, T/C [26] was 16.2% and the viability, T/C [27] was 15.2%. It also gave a viability, T/C [28] of 14.9%, a viability, T/C [29] of 12.7% and a viability, T/C [30] of 20.7%. The viability, T/C [31] was 34.3%, the viability, T/C [32] was 29.5% and the viability, T/C [33] was 47.7%. It also gave a viability, T/C [34] of 31.4%, a viability, T/C [35] of 27.4% and a viability, T/C [36] of 33.6%.
Cc1[nH]c2ccccc2c1CCNCc1ccc(/C=C/C(=O)NO)cc1 + Cc1[nH]c2ccc(F)cc2c1-c1nc2c3cccnc3c3ncccc3c2[nH]1 showed an IC50 (second compound 0.0316 µM) of 0.102 µM, an IC50 (second compound 0.1 µM) of 0.0721 µM and an IC50 (second compound 0.316 µM) of 0.0452 µM. The IC50 (second compound 1 µM) was 0.039 µM, the IC50 (second compound 3.16 µM) was under 0.000999 µM and the IC50 (second compound 10 µM) was under 0.000999 µM. The viability, T/C (second compound 0.0316 µM, first compound 0.000999 µM) was 82.7%, the viability, T/C (second compound 0.0316 µM, first compound 0.00316 µM) was 100% and the viability, T/C (second compound 0.0316 µM, first compound 0.00999 µM) was 82.1%. It also gave a viability, T/C [1] of 96%, a viability, T/C (second compound 0.0316 µM, first compound 0.0999 µM) of 50.5% and a viability, T/C [3] of 13.1%. For the same compound, the viability, T/C (second compound 0.1 µM, first compound 0.000999 µM) was 76.9%, the viability, T/C (second compound 0.1 µM, first compound 0.00316 µM) was 84.2% and the viability, T/C (second compound 0.1 µM, first compound 0.00999 µM) was 62.8%. For the same compound, the viability, T/C [7] was 68%, the viability, T/C (second compound 0.1 µM, first compound 0.0999 µM) was 43.9% and the viability, T/C [9] was 10.9%. For the same compound, the viability, T/C (second compound 0.316 µM, first compound 0.000999 µM) was 64.2%, the viability, T/C (second compound 0.316 µM, first compound 0.00316 µM) was 62.3% and the viability, T/C (second compound 0.316 µM, first compound 0.00999 µM) was 46.5%. It also gave a viability, T/C [13] of 64%, a viability, T/C (second compound 0.316 µM, first compound 0.0999 µM) of 26.4% and a viability, T/C [15] of 32.4%. It also gave a viability, T/C (second compound 1 µM, first compound 0.000999 µM) of 58.9%, a viability, T/C (second compound 1 µM, first compound 0.00316 µM) of 44.6% and a viability, T/C (second compound 1 µM, first compound 0.00999 µM) of 65.7%. It also gave a viability, T/C [19] of 50.8%, a viability, T/C (second compound 1 µM, first compound 0.0999 µM) of 37.1% and a viability, T/C [21] of 7.17%. For the same compound, the viability, T/C (second compound 3.16 µM, first compound 0.000999 µM) was 18.3%, the viability, T/C (second compound 3.16 µM, first compound 0.00316 µM) was 15.9% and the viability, T/C (second compound 3.16 µM, first compound 0.00999 µM) was 21.4%. It also gave a viability, T/C [25] of 13.6%, a viability, T/C (second compound 3.16 µM, first compound 0.0999 µM) of 7.05% and a viability, T/C [27] of 6.05%. The viability, T/C (second compound 10 µM, first compound 0.000999 µM) was 35.8%, the viability, T/C (second compound 10 µM, first compound 0.00316 µM) was 45.9% and the viability, T/C (second compound 10 µM, first compound 0.00999 µM) was 36.5%. For the same compound, the viability, T/C [31] was 39.7%, the viability, T/C (second compound 10 µM, first compound 0.0999 µM) was 35.3% and the viability, T/C [33] was 17.5%.
For CC1COCCN1c1cc(C2(S(C)(=N)=O)CC2)nc(-c2ccnc3[nH]ccc23)n1 (stereo not drawn) + Cc1cnc(CNC(=O)c2c(=O)c3ccc(N4CCCN(C)CC4)nc3n3c2sc2ccccc23)cn1, the IC50 (second compound 0.0316 µM) was over 10 µM, the IC50 (second compound 0.1 µM) was over 10 µM and the IC50 (second compound 0.316 µM) was over 10 µM. For the same compound, the IC50 (second compound 1 µM) was over 10 µM, the IC50 (second compound 3.16 µM) was 5.9 µM and the IC50 (second compound 10 µM) was over 10 µM. For the same compound, the viability, T/C [1] was 99%, the viability, T/C [2] was 72.1% and the viability, T/C [3] was 90.8%. The viability, T/C [4] was 77.4%, the viability, T/C [5] was 75.3% and the viability, T/C [6] was 60.2%. For the same compound, the viability, T/C [7] was 82%, the viability, T/C [8] was 76.5% and the viability, T/C [9] was 76%. For the same compound, the viability, T/C [10] was 92.6%, the viability, T/C [11] was 80.2% and the viability, T/C [12] was 64.5%. It also gave a viability, T/C [13] of 75.2%, a viability, T/C [14] of 87.8% and a viability, T/C [15] of 83.5%. For the same compound, the viability, T/C [16] was 78.2%, the viability, T/C [17] was 79.1% and the viability, T/C [18] was 58.6%. For the same compound, the viability, T/C [19] was 75.8%, the viability, T/C [20] was 72.3% and the viability, T/C [21] was 72.9%. It also gave a viability, T/C [22] of 58.7%, a viability, T/C [23] of 70.9% and a viability, T/C [24] of 53%. For the same compound, the viability, T/C [25] was 64.5%, the viability, T/C [26] was 67.6% and the viability, T/C [27] was 75.4%. The viability, T/C [28] was 69.3%, the viability, T/C [29] was 57% and the viability, T/C [30] was 41.9%. The viability, T/C [31] was 63.3%, the viability, T/C [32] was 66% and the viability, T/C [33] was 73%. It also gave a viability, T/C [34] of 58.8%, a viability, T/C [35] of 65% and a viability, T/C [36] of 42.8%.
With COc1ccc([C@@H](O)c2cc(-c3ncnc4cc(N5CCOCC5)ccc34)c(F)cc2Cl)nn1 + Cc1cnc(CNC(=O)c2c(=O)c3ccc(N4CCCN(C)CC4)nc3n3c2sc2ccccc23)cn1 the IC50 (second compound 0.0316 µM) was 8.71 µM, the IC50 (second compound 0.1 µM) was over 10 µM and the IC50 (second compound 0.316 µM) was 4.4 µM. The IC50 (second compound 1 µM) was 2.53 µM, the IC50 (second compound 3.16 µM) was 1.77 µM and the IC50 (second compound 10 µM) was 0.709 µM. For the same compound, the viability, T/C [1] was 75.2%, the viability, T/C [2] was 81.5% and the viability, T/C [3] was 79.3%. For the same compound, the viability, T/C [4] was 68.8%, the viability, T/C [5] was 60.6% and the viability, T/C [6] was 48.4%. It also gave a viability, T/C [7] of 78.7%, a viability, T/C [8] of 73.9% and a viability, T/C [9] of 70.2%. The viability, T/C [10] was 73.8%, the viability, T/C [11] was 69.6% and the viability, T/C [12] was 55.1%. For the same compound, the viability, T/C [13] was 74.4%, the viability, T/C [14] was 87.7% and the viability, T/C [15] was 83.9%. The viability, T/C [16] was 71%, the viability, T/C [17] was 55.1% and the viability, T/C [18] was 39.3%. The viability, T/C [19] was 73.6%, the viability, T/C [20] was 77.9% and the viability, T/C [21] was 75.2%. For the same compound, the viability, T/C [22] was 63%, the viability, T/C [23] was 47.4% and the viability, T/C [24] was 33.7%. For the same compound, the viability, T/C [25] was 69.2%, the viability, T/C [26] was 69.3% and the viability, T/C [27] was 70%. It also gave a viability, T/C [28] of 56.2%, a viability, T/C [29] of 43.1% and a viability, T/C [30] of 34%. It also gave a viability, T/C [31] of 65%, a viability, T/C [32] of 58.1% and a viability, T/C [33] of 70%. It also gave a viability, T/C [34] of 43.9%, a viability, T/C [35] of 43.2% and a viability, T/C [36] of 30.9%.
